{"source": "PubChem BioAssay (NCI)", "assay_in_all_cases": "NCI tumour cell line growth inhibition, 48 h", "key": {"SNB-19 CNS": {"test_system": "SNB-19 CNS"}, "SF-295 CNS": {"test_system": "SF-295 CNS"}, "NCI-H23 lung": {"test_system": "NCI-H23 lung"}, "OVCAR-3 ovarian": {"test_system": "OVCAR-3 ovarian"}, "MDA-MB-231 breast": {"test_system": "MDA-MB-231 breast"}, "EKVX NSCLC": {"test_system": "EKVX NSCLC"}, "HCT-116 colon": {"test_system": "HCT-116 colon"}, "A549 NSCLC": {"test_system": "A549 NSCLC"}, "SK-MEL-28 melanoma": {"test_system": "SK-MEL-28 melanoma"}, "IGROV1 ovarian": {"test_system": "IGROV1 ovarian"}, "HS 578T breast": {"test_system": "HS 578T breast"}, "OVCAR-8 ovarian": {"test_system": "OVCAR-8 ovarian"}, "HOP-92 NSCLC": {"test_system": "HOP-92 NSCLC"}, "COLO 205 colon": {"test_system": "COLO 205 colon"}, "CCRF-CEM leukemia": {"test_system": "CCRF-CEM leukemia"}, "UACC-62 melanoma": {"test_system": "UACC-62 melanoma"}, "LOX IMVI melanoma": {"test_system": "LOX IMVI melanoma"}, "HL-60(TB) leukemia": {"test_system": "HL-60(TB) leukemia"}, "HT29 colon": {"test_system": "HT29 colon"}, "PC-3 prostate": {"test_system": "PC-3 prostate"}, "MDA-MB-435": {"test_system": "MDA-MB-435"}, "MCF7 breast": {"test_system": "MCF7 breast"}, "UO-31 renal": {"test_system": "UO-31 renal"}, "MDA-N": {"test_system": "MDA-N"}, "MOLT-4 leukemia": {"test_system": "MOLT-4 leukemia"}, "SK-MEL-5 melanoma": {"test_system": "SK-MEL-5 melanoma"}, "K-562 leukemia": {"test_system": "K-562 leukemia"}, "NCI-H522 lung": {"test_system": "NCI-H522 lung"}, "ACHN renal": {"test_system": "ACHN renal"}, "OVCAR-5 ovarian": {"test_system": "OVCAR-5 ovarian"}, "UACC-257 melanoma": {"test_system": "UACC-257 melanoma"}, "NCI-H460 lung": {"test_system": "NCI-H460 lung"}, "SK-OV-3 ovarian": {"test_system": "SK-OV-3 ovarian"}, "BT-549 breast": {"test_system": "BT-549 breast"}, "SW-620 colon": {"test_system": "SW-620 colon"}, "TK-10 renal": {"test_system": "TK-10 renal"}, "786-0 renal": {"test_system": "786-0 renal"}, "KM12 colon": {"test_system": "KM12 colon"}, "OVCAR-4 ovarian": {"test_system": "OVCAR-4 ovarian"}, "NCI/ADR-RES ovarian": {"test_system": "NCI/ADR-RES ovarian"}, "CAKI-1 renal": {"test_system": "CAKI-1 renal"}, "T-47D breast": {"test_system": "T-47D breast"}, "HOP-62 NSCLC": {"test_system": "HOP-62 NSCLC"}, "RXF 393 renal": {"test_system": "RXF 393 renal"}, "DU-145 prostate": {"test_system": "DU-145 prostate"}, "SR leukemia": {"test_system": "SR leukemia"}, "NCI-H226 lung": {"test_system": "NCI-H226 lung"}, "SN12C renal": {"test_system": "SN12C renal"}, "HCT-15 colon": {"test_system": "HCT-15 colon"}, "M14 melanoma": {"test_system": "M14 melanoma"}, "U251 CNS": {"test_system": "U251 CNS"}, "SNB-75 CNS": {"test_system": "SNB-75 CNS"}, "SF-539 CNS": {"test_system": "SF-539 CNS"}, "SF-268 CNS": {"test_system": "SF-268 CNS"}}, "note": "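Five concentrations, 48 hours, 96-well plates. TGI: concentration producing complete growth inhibition.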"}
{"compound": "CC1=C(C(=O)OCc2ccncc2)C(C2=C(C)SCCS2)C(C(=O)OCc2ccncc2)=C(C)N1", "values": [{"measurement": "TGI", "setting": "SNB-19 CNS", "result": 87.5, "unit": "µM"}, {"measurement": "TGI", "setting": "SF-295 CNS", "result": 38, "unit": "µM"}, {"measurement": "TGI", "setting": "NCI-H23 lung", "result": 76.5, "unit": "µM"}, {"measurement": "TGI", "setting": "OVCAR-3 ovarian", "result": 38.8, "unit": "µM"}, {"measurement": "TGI", "setting": "MDA-MB-231 breast", "result": 91.9, "unit": "µM"}, {"measurement": "TGI", "setting": "EKVX NSCLC", "result": "> 100", "unit": "µM"}, {"measurement": "TGI", "setting": "HCT-116 colon", "result": 32.2, "unit": "µM"}, {"measurement": "TGI", "setting": "A549 NSCLC", "result": "> 100", "unit": "µM"}, {"measurement": "TGI", "setting": "SK-MEL-28 melanoma", "result": 34, "unit": "µM"}, {"measurement": "TGI", "setting": "IGROV1 ovarian", "result": "> 100", "unit": "µM"}, {"measurement": "TGI", "setting": "HS 578T breast", "result": 58.3, "unit": "µM"}, {"measurement": "TGI", "setting": "OVCAR-8 ovarian", "result": "> 100", "unit": "µM"}, {"measurement": "TGI", "setting": "HOP-92 NSCLC", "result": 31.5, "unit": "µM"}, {"measurement": "TGI", "setting": "COLO 205 colon", "result": "> 100", "unit": "µM"}, {"measurement": "TGI", "setting": "CCRF-CEM leukemia", "result": 59.8, "unit": "µM"}, {"measurement": "TGI", "setting": "UACC-62 melanoma", "result": 73.6, "unit": "µM"}, {"measurement": "TGI", "setting": "LOX IMVI melanoma", "result": 35.8, "unit": "µM"}, {"measurement": "TGI", "setting": "HL-60(TB) leukemia", "result": 79.3, "unit": "µM"}, {"measurement": "TGI", "setting": "HT29 colon", "result": 40, "unit": "µM"}, {"measurement": "TGI", "setting": "PC-3 prostate", "result": 52.4, "unit": "µM"}, {"measurement": "TGI", "setting": "MDA-MB-435", "result": 38.9, "unit": "µM"}, {"measurement": "TGI", "setting": "MCF7 breast", "result": 52, "unit": "µM"}, {"measurement": "TGI", "setting": "UO-31 renal", "result": 37.9, "unit": "µM"}, {"measurement": "TGI", "setting": "MDA-N", "result": 72.8, "unit": "µM"}, {"measurement": "TGI", "setting": "MOLT-4 leukemia", "result": 49.2, "unit": "µM"}, {"measurement": "TGI", "setting": "SK-MEL-5 melanoma", "result": 28.6, "unit": "µM"}, {"measurement": "TGI", "setting": "K-562 leukemia", "result": 59.2, "unit": "µM"}, {"measurement": "TGI", "setting": "NCI-H522 lung", "result": 54, "unit": "µM"}, {"measurement": "TGI", "setting": "ACHN renal", "result": "> 100", "unit": "µM"}, {"measurement": "TGI", "setting": "OVCAR-5 ovarian", "result": "> 100", "unit": "µM"}, {"measurement": "TGI", "setting": "UACC-257 melanoma", "result": 50.1, "unit": "µM"}, {"measurement": "TGI", "setting": "NCI-H460 lung", "result": 73.5, "unit": "µM"}, {"measurement": "TGI", "setting": "SK-OV-3 ovarian", "result": 88, "unit": "µM"}, {"measurement": "TGI", "setting": "BT-549 breast", "result": 42.2, "unit": "µM"}, {"measurement": "TGI", "setting": "SW-620 colon", "result": 64.6, "unit": "µM"}, {"measurement": "TGI", "setting": "TK-10 renal", "result": "> 100", "unit": "µM"}, {"measurement": "TGI", "setting": "786-0 renal", "result": "> 100", "unit": "µM"}, {"measurement": "TGI", "setting": "KM12 colon", "result": 47.5, "unit": "µM"}, {"measurement": "TGI", "setting": "OVCAR-4 ovarian", "result": "> 100", "unit": "µM"}, {"measurement": "TGI", "setting": "NCI/ADR-RES ovarian", "result": "> 100", "unit": "µM"}, {"measurement": "TGI", "setting": "CAKI-1 renal", "result": "> 100", "unit": "µM"}, {"measurement": "TGI", "setting": "T-47D breast", "result": 42.8, "unit": "µM"}, {"measurement": "TGI", "setting": "HOP-62 NSCLC", "result": 58.6, "unit": "µM"}, {"measurement": "TGI", "setting": "RXF 393 renal", "result": 27.4, "unit": "µM"}, {"measurement": "TGI", "setting": "DU-145 prostate", "result": "> 100", "unit": "µM"}, {"measurement": "TGI", "setting": "SR leukemia", "result": "> 100", "unit": "µM"}, {"measurement": "TGI", "setting": "NCI-H226 lung", "result": 42.7, "unit": "µM"}, {"measurement": "TGI", "setting": "SN12C renal", "result": 70.6, "unit": "µM"}, {"measurement": "TGI", "setting": "HCT-15 colon", "result": 64.7, "unit": "µM"}, {"measurement": "TGI", "setting": "M14 melanoma", "result": 71, "unit": "µM"}, {"measurement": "TGI", "setting": "U251 CNS", "result": 33.2, "unit": "µM"}, {"measurement": "TGI", "setting": "SNB-75 CNS", "result": 66.6, "unit": "µM"}, {"measurement": "TGI", "setting": "SF-539 CNS", "result": 33, "unit": "µM"}, {"measurement": "TGI", "setting": "SF-268 CNS", "result": "> 100", "unit": "µM"}]}
